# Source: PubChem BioAssay AID2060508 (Molecular Pharmacology Branch, DTP, NCI, 2025)
# Test system: 454973-116-R2-J3-PDC spheroids, viability, % test/control
# Test: Anticancer human tumor 454973-116-R2-J3-PDC patient-derived pancreatic carcinoma cell line growth inhibition [GQUAD]
# Conditions: second compound 0.0316 µM; first compound 3.16 µM; hits give low values; spheroids with HUVEC and MSC
# From the text: DNA G-quadruplex Stabilizer Agents in Combinations in Complex Spheroids
# A high-throughput screen of multi-cell type tumor spheroids was designed to identify active combinations of DNA G-quadruplex stabilizer agents and targeted small molecules. Complex spheroids include a stromal component modeled by human endothelial cells (HUVEC) and fibroblasts modeled by human mesenchymal stem cells (MSCs). The concentration ranges selected for each drug and investigational agent were based upon clinically achievable concentrations if the clinical Cmax of the agent was known.
# Compounds. The drugs and investigational agents: pidnarulex (CX-5461; NSC782164), APTO-253 (NSC789042), BRACO-19 (NSC847499), peposertib (NSC802822), ceralasertib (NSC780249), elimusertib (NSC800525), camonsertib (NSC841442), AZD-1390 (NSC803789), olaparib (NSC753686), talazoparib (NSC767125), ART-558 (NSC835418), sotorasib (NSC818433), MRTX-1133 (NSC836407), SN-38 (NSC673596), topotecan (NSC609699), etoposide (NSC141540), doxorubicin (NSC123127), gemcitabine (NSC613327), 5-fluorouracil (NSC19893), paclitaxel (NSC125973), vemurafenib (NSC761431), panobinostat (NSC761190), R-306465 (JNJ-16241199; NSC773264), adavosertib (NSC754352), TP-3654 (NSC805149), carboplatin (NSC241240), KSQ-4279 (NSC840948), and staurosporine (NSC755774) were obtained from the National Cancer Institute (NCI) Developmental Therapeutics Program Chemical Repository (34). The FDA-approved anticancer drug set is available from the NCI Developmental Therapeutics Program. […] The stock solutions were prepared in dimethyl sulfoxide (DMSO, Sigma-Aldrich, St. Louis, MO, cat. D2650) at 800-fold the tested concentration and stored at -70 degrees C prior to their use. All drugs and investigational agents were tested over a range starting from a high concentration at or near the clinical Cmax and decreasing in half-log increments. If the clinical Cmax for an agent had not been determined, the highest concentration tested was 10 microM.
# 2.3 Cell Culture. All cells were maintained in an incubator at 37 degrees C and 5% CO2 with 95% humidity. The PDC lines were cultured according to standard operating procedures established by the NCI PDMR. All PDCs were thawed and cultured in Matrigel-coated flasks prepared with a working solution of 1X Ham's F-12 nutrient mix, without supplementation (Invitrogen, cat. 11765054), 100 U/mL penicillin-streptomycin (Invitrogen, cat. 15140122), and 2.5% Matrigel (Corning Inc., cat. 354248) for the first three passages. The 857933-349-R-J2-PDC line was cultured in 6C/Colon 1B media, which includes advanced DMEM/F-12 (Thermo Fisher Scientific, cat. 12634028), 10 mM HEPES (Thermo Fisher Scientific, cat. 15630080), 1X GlutaMAX supplement (Thermo Fisher Scientific, cat. 35050061), 0.1 mg/mL primocin (InvivoGen, cat. ant-pm-2), 10% defined fetal bovine serum, heat inactivated (HyClone Laboratories Inc., cat. SH30070.03HI), 50% L-WRN conditioned media (ATCC, cat. CRL-3276), 1.25 mM N-Acetyl-L-cysteine (Sigma-Aldrich, cat. A9165), 10 mM nicotinamide (Sigma-Aldrich, cat. N0636), 1X B-27 supplement (Thermo Fisher Scientific, cat. 17504044), 1X N-2 supplement (Thermo Fisher Scientific, cat. 17502048), 10 microM Y-27632 dihydrochloride (Tocris Bioscience, cat. 1254), and 50 ng/mL human EGF recombinant protein (Thermo Fisher Scientific, cat. PHG0311). The 485176-168-R4-J1-PDC line was cultured in Panc media, which includes all 6C/Colon 1B media components plus 100 ng/mL human FGF-10 (Thermo Fisher Scientific, cat. 100-26), 500 nM SB-431542 (Selleckchem, cat. S1067), and gastrin (Tocris, cat. 3006).
# […]
# 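Further: spheroids exposed to compounds for seven days.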
row,Compound,"viability, T/C [%]"
1,CC1COCCN1c1cc(C2(O)CC3CCC(C2)O3)c2cnn(-c3ccn[nH]3)c2n1 (configuration not stated) + Cc1[nH]c2ccc(F)cc2c1-c1nc2c3cccnc3c3ncccc3c2[nH]1,24.1
2,O=C(c1cc(Cc2n[nH]c(=O)c3ccccc23)ccc1F)N1CCN(C(=O)C2CC2)CC1 + Cc1[nH]c2ccc(F)cc2c1-c1nc2c3cccnc3c3ncccc3c2[nH]1,79.8

# Same assay, conditions: second compound 0.0316 µM; first compound 10 µM; hits give low values; spheroids with HUVEC and MSC
row,Compound,"viability, T/C [%]"
1,C=CCn1c(=O)c2cnc(Nc3ccc(N4CCN(C)CC4)cc3)nc2n1-c1cccc(C(C)(C)O)n1 + CN(C)c1ccc(Nc2c3ccc(NC(=O)CCN4CCCC4)cc3nc3cc(NC(=O)CCN4CCCC4)ccc23)cc1,8.82
2,CC1COCCN1c1cc(C2(O)CC3CCC(C2)O3)c2cnn(-c3ccn[nH]3)c2n1 (configuration not stated) + Cc1[nH]c2ccc(F)cc2c1-c1nc2c3cccnc3c3ncccc3c2[nH]1,12.3
3,O=C(c1cc(Cc2n[nH]c(=O)c3ccccc23)ccc1F)N1CCN(C(=O)C2CC2)CC1 + Cc1[nH]c2ccc(F)cc2c1-c1nc2c3cccnc3c3ncccc3c2[nH]1,60.8

# Same assay, conditions: second compound 0.1 µM; first compound 0.0316 µM; hits give low values; spheroids with HUVEC and MSC
row,Compound,"viability, T/C [%]"
1,C=CCn1c(=O)c2cnc(Nc3ccc(N4CCN(C)CC4)cc3)nc2n1-c1cccc(C(C)(C)O)n1 + CN(C)c1ccc(Nc2c3ccc(NC(=O)CCN4CCCC4)cc3nc3cc(NC(=O)CCN4CCCC4)ccc23)cc1,108
2,CC1COCCN1c1cc(C2(O)CC3CCC(C2)O3)c2cnn(-c3ccn[nH]3)c2n1 (configuration not stated) + Cc1[nH]c2ccc(F)cc2c1-c1nc2c3cccnc3c3ncccc3c2[nH]1,87
3,O=C(c1cc(Cc2n[nH]c(=O)c3ccccc23)ccc1F)N1CCN(C(=O)C2CC2)CC1 + Cc1[nH]c2ccc(F)cc2c1-c1nc2c3cccnc3c3ncccc3c2[nH]1,109

# Same assay, conditions: second compound 0.1 µM; first compound 0.1 µM; hits give low values; spheroids with HUVEC and MSC
row,Compound,"viability, T/C [%]"
1,C=CCn1c(=O)c2cnc(Nc3ccc(N4CCN(C)CC4)cc3)nc2n1-c1cccc(C(C)(C)O)n1 + CN(C)c1ccc(Nc2c3ccc(NC(=O)CCN4CCCC4)cc3nc3cc(NC(=O)CCN4CCCC4)ccc23)cc1,98.7
2,CC1COCCN1c1cc(C2(O)CC3CCC(C2)O3)c2cnn(-c3ccn[nH]3)c2n1 (configuration not stated) + Cc1[nH]c2ccc(F)cc2c1-c1nc2c3cccnc3c3ncccc3c2[nH]1,58.9
3,O=C(c1cc(Cc2n[nH]c(=O)c3ccccc23)ccc1F)N1CCN(C(=O)C2CC2)CC1 + Cc1[nH]c2ccc(F)cc2c1-c1nc2c3cccnc3c3ncccc3c2[nH]1,97.3

# Same assay, conditions: second compound 0.1 µM; first compound 0.316 µM; hits give low values; spheroids with HUVEC and MSC
row,Compound,"viability, T/C [%]"
1,C=CCn1c(=O)c2cnc(Nc3ccc(N4CCN(C)CC4)cc3)nc2n1-c1cccc(C(C)(C)O)n1 + CN(C)c1ccc(Nc2c3ccc(NC(=O)CCN4CCCC4)cc3nc3cc(NC(=O)CCN4CCCC4)ccc23)cc1,51.8
2,CC1COCCN1c1cc(C2(O)CC3CCC(C2)O3)c2cnn(-c3ccn[nH]3)c2n1 (configuration not stated) + Cc1[nH]c2ccc(F)cc2c1-c1nc2c3cccnc3c3ncccc3c2[nH]1,28.9
3,O=C(c1cc(Cc2n[nH]c(=O)c3ccccc23)ccc1F)N1CCN(C(=O)C2CC2)CC1 + Cc1[nH]c2ccc(F)cc2c1-c1nc2c3cccnc3c3ncccc3c2[nH]1,93.2

# Same assay, conditions: second compound 0.1 µM; first compound 1 µM; hits give low values; spheroids with HUVEC and MSC
row,Compound,"viability, T/C [%]"
1,C=CCn1c(=O)c2cnc(Nc3ccc(N4CCN(C)CC4)cc3)nc2n1-c1cccc(C(C)(C)O)n1 + CN(C)c1ccc(Nc2c3ccc(NC(=O)CCN4CCCC4)cc3nc3cc(NC(=O)CCN4CCCC4)ccc23)cc1,19.7
2,CC1COCCN1c1cc(C2(O)CC3CCC(C2)O3)c2cnn(-c3ccn[nH]3)c2n1 (configuration not stated) + Cc1[nH]c2ccc(F)cc2c1-c1nc2c3cccnc3c3ncccc3c2[nH]1,21.3
3,O=C(c1cc(Cc2n[nH]c(=O)c3ccccc23)ccc1F)N1CCN(C(=O)C2CC2)CC1 + Cc1[nH]c2ccc(F)cc2c1-c1nc2c3cccnc3c3ncccc3c2[nH]1,94.6

# Same assay, conditions: second compound 0.1 µM; first compound 3.16 µM; hits give low values; spheroids with HUVEC and MSC
row,Compound,"viability, T/C [%]"
1,C=CCn1c(=O)c2cnc(Nc3ccc(N4CCN(C)CC4)cc3)nc2n1-c1cccc(C(C)(C)O)n1 + CN(C)c1ccc(Nc2c3ccc(NC(=O)CCN4CCCC4)cc3nc3cc(NC(=O)CCN4CCCC4)ccc23)cc1,6.15
2,CC1COCCN1c1cc(C2(O)CC3CCC(C2)O3)c2cnn(-c3ccn[nH]3)c2n1 (configuration not stated) + Cc1[nH]c2ccc(F)cc2c1-c1nc2c3cccnc3c3ncccc3c2[nH]1,21.8
3,O=C(c1cc(Cc2n[nH]c(=O)c3ccccc23)ccc1F)N1CCN(C(=O)C2CC2)CC1 + Cc1[nH]c2ccc(F)cc2c1-c1nc2c3cccnc3c3ncccc3c2[nH]1,94.9

# Same assay, conditions: second compound 0.1 µM; first compound 10 µM; hits give low values; spheroids with HUVEC and MSC
row,Compound,"viability, T/C [%]"
1,C=CCn1c(=O)c2cnc(Nc3ccc(N4CCN(C)CC4)cc3)nc2n1-c1cccc(C(C)(C)O)n1 + CN(C)c1ccc(Nc2c3ccc(NC(=O)CCN4CCCC4)cc3nc3cc(NC(=O)CCN4CCCC4)ccc23)cc1,9.87
2,CC1COCCN1c1cc(C2(O)CC3CCC(C2)O3)c2cnn(-c3ccn[nH]3)c2n1 (configuration not stated) + Cc1[nH]c2ccc(F)cc2c1-c1nc2c3cccnc3c3ncccc3c2[nH]1,10.4
3,O=C(c1cc(Cc2n[nH]c(=O)c3ccccc23)ccc1F)N1CCN(C(=O)C2CC2)CC1 + Cc1[nH]c2ccc(F)cc2c1-c1nc2c3cccnc3c3ncccc3c2[nH]1,58.1

# Same assay, conditions: second compound 0.316 µM; first compound 0.0316 µM; hits give low values; spheroids with HUVEC and MSC
row,Compound,"viability, T/C [%]"
1,C=CCn1c(=O)c2cnc(Nc3ccc(N4CCN(C)CC4)cc3)nc2n1-c1cccc(C(C)(C)O)n1 + CN(C)c1ccc(Nc2c3ccc(NC(=O)CCN4CCCC4)cc3nc3cc(NC(=O)CCN4CCCC4)ccc23)cc1,99.4
2,CC1COCCN1c1cc(C2(O)CC3CCC(C2)O3)c2cnn(-c3ccn[nH]3)c2n1 (configuration not stated) + Cc1[nH]c2ccc(F)cc2c1-c1nc2c3cccnc3c3ncccc3c2[nH]1,91.6
3,O=C(c1cc(Cc2n[nH]c(=O)c3ccccc23)ccc1F)N1CCN(C(=O)C2CC2)CC1 + Cc1[nH]c2ccc(F)cc2c1-c1nc2c3cccnc3c3ncccc3c2[nH]1,97.6

# Same assay, conditions: second compound 0.316 µM; first compound 0.1 µM; hits give low values; spheroids with HUVEC and MSC
row,Compound,"viability, T/C [%]"
1,C=CCn1c(=O)c2cnc(Nc3ccc(N4CCN(C)CC4)cc3)nc2n1-c1cccc(C(C)(C)O)n1 + CN(C)c1ccc(Nc2c3ccc(NC(=O)CCN4CCCC4)cc3nc3cc(NC(=O)CCN4CCCC4)ccc23)cc1,90.7
2,CC1COCCN1c1cc(C2(O)CC3CCC(C2)O3)c2cnn(-c3ccn[nH]3)c2n1 (configuration not stated) + Cc1[nH]c2ccc(F)cc2c1-c1nc2c3cccnc3c3ncccc3c2[nH]1,66.4
3,O=C(c1cc(Cc2n[nH]c(=O)c3ccccc23)ccc1F)N1CCN(C(=O)C2CC2)CC1 + Cc1[nH]c2ccc(F)cc2c1-c1nc2c3cccnc3c3ncccc3c2[nH]1,103

# Same assay, conditions: second compound 0.316 µM; first compound 0.316 µM; hits give low values; spheroids with HUVEC and MSC
row,Compound,"viability, T/C [%]"
1,C=CCn1c(=O)c2cnc(Nc3ccc(N4CCN(C)CC4)cc3)nc2n1-c1cccc(C(C)(C)O)n1 + CN(C)c1ccc(Nc2c3ccc(NC(=O)CCN4CCCC4)cc3nc3cc(NC(=O)CCN4CCCC4)ccc23)cc1,59.2
2,CC1COCCN1c1cc(C2(O)CC3CCC(C2)O3)c2cnn(-c3ccn[nH]3)c2n1 (configuration not stated) + Cc1[nH]c2ccc(F)cc2c1-c1nc2c3cccnc3c3ncccc3c2[nH]1,27.7
3,O=C(c1cc(Cc2n[nH]c(=O)c3ccccc23)ccc1F)N1CCN(C(=O)C2CC2)CC1 + Cc1[nH]c2ccc(F)cc2c1-c1nc2c3cccnc3c3ncccc3c2[nH]1,93
